Where two headings read alike, the source gives them in different places.
Legend:
[1] = system: sperm output; experiment: Cauda epididymal sperm count after multiple doses of CP; assay type: in vivo, mouse; settings: 28 days; HNG 10 mg/kg BW daily SC; CP 150 mg/kg BW IP, 6 doses at 5-day intervals
Protocol: The objective of this study was to investigate whether HNG has protective effect on sperm output after multiple doses of CP in mice. Thirty adult male mice (C57BL/6J) were randomized into 4 groups: 1) 5 as control; 2) 5 received daily subcutaneously injection of HNG (10 mg/kg BW); 3) 10 were given 6 doses of CP (150 mg/kg BW) intraperitoneally at 5-day intervals; 4) 10 received both HNG and CP. All mice were killed at 28 days. Plasma HNG and IGF-1 levels were measured by ELISAs. The cauda epididymal sperm count was performed using a hemocytometer.

[2] = system: male germ cells; settings: 24 hours
Protocol: Young adult mice (12-13 weeks) were randomly divided into 4 groups with 4 or 5 mice per group and received an IP injection: control (Con) (saline), HN (40 mg/Kg BW), CP (200 mg/Kg BW), and the combination of CP+HN. These experiments were repeated four times. In the CP+HN group, mice received an injection of HN followed by an injection of CP about 15 minutes later. Twenty-four hours after injections animals were sacrificed using 5% pentobarbital (200 mg/kg BW) IP injection. Blood was collected and one testis was removed, weighed and frozen in liquid nitrogen. The mouse was next perfused with saline and then subsequently perfuse-fixed with Bouin's solution as previously described and apoptosis was assessed by TUNEL assay (Lue, et al., 2009).
For detection of apoptosis in testicular sections, the paraffin embedded testis tissue was cut into 5 micron sections and stained with the TdT-mediated dUTP nick-end labeling assay (TUNEL Apoptosis Detection Kit, Millipore, Billerica, Mass.) to detect apoptosis of germ cells in the testis (Lue, et al., 2009). Testicular sections assayed by TUNEL were examined under a light microscope and the apoptotic germ cells were blindly and manually counted. The seminiferous tubules in the testis section under the microscope were grouped as stages IX-IV (early-late stages of spermatogenesis) and V-VIII (middle stages of spermatogenesis). Germ cell apoptosis was quantified as the number of seminiferous tubules containing apoptotic spermatogonia, spermatoctyes, round spermatids and spermatozoa per 100 seminiferous tubules (Drumond, et al., 2011).

[3] = system: male germ cells; assay type: in vivo, mouse; settings: B16 tumor-bearing mice; CP 200 mg/Kg single IP, 2 weeks
Protocol: (§1) A total of 25 young adult mice (10-12 weeks) were randomly divided into 5 groups (n=5 per group). Five mice were used as control. Twenty mice were inoculated intravenously with B16 murine melanoma cells (2×10^5 cells/mouse). Among these 20 tumor-inoculated mice, 5 mice received no further treatment. After one week, the remaining 15 mice were divided into 3 groups and injected with: 1) HNG daily IP (5 mg/Kg body weight) for 2 weeks; 2) CP (200 mg/Kg body weight IP single injection); 3) combined CP with HNG treatment (same doses as above). All mice were sacrificed 3 weeks after tumor inoculation, and 2 weeks after HNG and/or CP treatment. The animals were sacrificed with 5% pentobarbital (200 mg/kg body weight) IP injection after which blood was collected from the right atrium of the heart. One of the testes from each mouse was immersed fixed in Bouin's solution, and the mice were perfused with saline and subsequently perfuse-fixed with 5% glutaraldehyde in 0.05 M cacodylate buffer (pH 7.4). The lungs were dissected out and post fixed in 5% glutaraldehyde solution for 24 hours and stored in cacodylate buffer at 4° C. for the subsequent tumor count (Lue, et al., 2010; Lue, et al., 2009).

[4] = system: B16 murine melanoma cells; experiment: Metastatic lung tumors in mouse B16 melanoma model (Experiments 3 and 4); assay type: in vivo
Protocol: as §1
Experiment 3 was repeated after inoculation of B16 melanoma tumor at week 1 and then treated with the following treatment starting at week 2 (n=5 mice per group): 1). No treatment; 2). HNG IP injections 5 mg/Kg daily; 3) CP 200 mg/Kg single IP injection; 4) HNG 5 mg/Kg/day+CP; 5). HNG IP injections 15 mg/Kg daily; and 6). HNG 15 mg/Kg/day+CP. All animals were euthanized and perfused with 4% paraformaldehyde at the end of week 3. Lungs and testes were collected and processed as in experiment 3. Methods
B16 melanoma tumors in the lung were quantified by counting the number of tumors on the surface of the lungs under stereomicroscopy (Collisson, et al., 2003; Craft, et al., 2005). The size of the tumor was measured using histomorphometry and expressed as average size of tumor. The appearance of the melanoma cells were reviewed and characterized by an expert pathologist.

## O=P1(N(CCCl)CCCl)NCCCO1 (centres unmarked) [CP, cyclophosphamide monohydrate]
[1]
  epididymal sperm counts: 0.5±0.1 ×10^6/mg
[2]; early-late stages of spermatogenesis, CP 200 mg/Kg IP
  germ cell apoptosis compared to control: significantly increased germ cell apoptosis
[2]; middle stages (V-VIII), CP 200 mg/Kg IP
  germ cell apoptosis compared to control: significant increase in apoptosis
[2]; testicular cross sections, HN 40 mg/Kg or CP 200 mg/Kg single IP
  germ cell apoptosis compared to control: significantly increased germ cell apoptosis
[3]
  germ cell apoptosis compared to control and HNG treated mice: further significantly increased
  testis weight in comparison with control, non-treated tumor bearing and HNG treated mice: significantly decreased
[4]; Experiment 3, HNG 5 mg/Kg daily IP 2 weeks or CP 200 mg/Kg single IP
  number of metastatic tumors on the surface of the lungs vs non-treated tumor-bearing mice: decreased number of tumors
[4]; Experiment 3, HNG 5 mg/Kg daily or CP 200 mg/Kg single IP
  size of the melanoma metastasis on the surface of the lungs: decreased number of tumors but also tumor size
[4]; Experiment 4, HNG 5 mg/kg BW daily or CP 200 mg/Kg single IP
  number of lung tumors vs non-treated tumor-bearing mice: significantly decreased both the number and size of the tumors
[4]; Experiment 4, HNG 5 and 15 mg/kg BW, CP 200 mg/Kg
  size of the lung tumors vs non-treated: significantly decreased both the number and size of the tumors
[4]; HNG 5 mg/kg BW, CP, or combination
  lung metastatic melanoma histology (differentiation of melanoma cells): minor differentiation

Source: patent US9937227B2, “Humanin, analogs and cancer treatment methods and uses thereof” (LOS ANGELES BIOMEDICAL RESEARCH INSTITUTE AT HARBOR-UCLA …, priority 2014, dated 2018)
